{"source": "patent US4689339A", "about": "“4-dihydroinden-2-yl-, 4-tetrahydronaphth-2-yl-, and 4-dihydrobenzofuran-2-ylimidazoles, useful to block α2 -adrenergic receptors” (Farmos Yhtyma oy, priority 1984, dated 1987)", "key": {"[1]": {"tested_on": "α2-receptor", "assay": "α2-antagonism in the central nervous system, inhibition of detomidine induced potentiation of barbiturate sleeping time in mice", "type": "in vivo, mouse", "conditions": "detomidine 150 μg/kg ip", "from_the_text": "α2 -antagonism in the central nervous system was secondly studied by following the ability of the antagonist to inhibit detomidine induced sedation in the mouse. This was done by measuring the increase of barbiturate sleeping time induced by detomidine. This effect of detomidine is known to be induced through α2 -receptor activation. The antagonist can be studied by administering it prior to detomidine."}, "[2]": {"molecular_target": "α1-receptors", "assay": "α1-agonism in vitro, isolated anococcygeus muscle (rat)", "type": "biochemical", "conditions": "negative logarithm of the molar concentration producing 50 percent of maximal contraction", "procedure": "(§1) To obtain information also on the selectivity of the antagonist between α1 - and α2 -receptors, its ability to inhibit or stimulate α1 -receptors was determined by means of isolated anococcygeus muscle (rat). […] To determine α-antagonism, muscular contraction was induced by phenylephrine and the pA2 value of the studied compound was determined as above. α1 -agonist effect is presented as the pD2 value (negative logarithm of the molar concentration of the compound producing 50 percent of maximal contraction)."}, "[3]": {"molecular_target": "T1, α2-receptors of the central nervous system (Rattus norvegicus, UniProt P22909)", "T1 construct": "In anaesthetized rat, a standard dose of detomidine was administered intravenously; from tissue; host or cells: whole anaesthetized rat, in vivo (central nervous system)", "T1 sequence (P22909 1-465)": "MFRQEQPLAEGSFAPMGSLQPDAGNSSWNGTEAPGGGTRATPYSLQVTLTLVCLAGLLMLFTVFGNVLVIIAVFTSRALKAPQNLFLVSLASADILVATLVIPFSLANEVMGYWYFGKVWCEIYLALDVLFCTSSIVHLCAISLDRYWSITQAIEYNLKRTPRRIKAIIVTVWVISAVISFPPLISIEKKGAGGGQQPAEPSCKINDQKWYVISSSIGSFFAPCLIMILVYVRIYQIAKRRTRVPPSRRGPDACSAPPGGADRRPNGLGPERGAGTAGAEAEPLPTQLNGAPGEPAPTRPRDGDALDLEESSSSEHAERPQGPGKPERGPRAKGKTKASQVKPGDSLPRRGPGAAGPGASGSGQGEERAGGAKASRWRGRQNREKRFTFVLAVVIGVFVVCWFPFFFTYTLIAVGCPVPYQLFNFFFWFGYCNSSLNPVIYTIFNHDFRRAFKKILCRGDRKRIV", "assay": "α2-antagonism in vivo, reversal of detomidine-induced mydriasis in anaesthetized rat", "conditions": "iv", "procedure": "The central α2 -blocking effect of the studied substances under in vivo conditions was studied using two methods. First, it is known that in the rat α2 -agonists induce dilatation of the pupil (mydriasis) which effect is transmitted via α2 -receptors of the central nervous system. In anaesthetized rat, a standard dose of detomidine was administered intravenously. Thereafter increasing doses of the studied antagonist were injected intravenously and the reversal of detomidine-induced mydriasis was followed. The ED50 value of the antagonist, i.e. the dose producing a 50 percent reversal, was determined."}, "[4]": {"molecular_target": "T2, α2-receptors (Mus musculus, UniProt Q01338)", "T2 construct": "isolated, electrically stimulated mouse vas deferens preparation; from tissue; host or cells: mouse vas deferens", "T2 sequence (Q01338 1-465)": "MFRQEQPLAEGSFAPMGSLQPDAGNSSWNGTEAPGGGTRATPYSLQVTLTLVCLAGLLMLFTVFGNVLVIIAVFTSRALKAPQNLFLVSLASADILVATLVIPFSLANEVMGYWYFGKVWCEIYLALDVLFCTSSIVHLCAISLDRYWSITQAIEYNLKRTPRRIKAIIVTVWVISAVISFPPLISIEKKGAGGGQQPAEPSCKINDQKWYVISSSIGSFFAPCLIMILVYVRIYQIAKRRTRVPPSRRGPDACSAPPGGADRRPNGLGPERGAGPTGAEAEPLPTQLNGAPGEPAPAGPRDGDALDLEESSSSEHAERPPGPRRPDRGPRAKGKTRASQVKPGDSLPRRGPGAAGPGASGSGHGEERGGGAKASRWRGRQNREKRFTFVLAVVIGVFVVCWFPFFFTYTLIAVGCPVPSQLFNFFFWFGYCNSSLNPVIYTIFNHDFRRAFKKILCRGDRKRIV", "assay": "α2-antagonism in vitro, isolated electrically stimulated mouse vas deferens (vs detomidine)", "type": "biochemical", "procedure": "α2 -antagonism was determined by means of isolated, electrically stimulated mouse vas deferens preparation (Marshall et al., Br. J. Pharmac. 62, 147, 151, 1978). In this model, α2 -agonist (detomidine) blocks electrically stimulated muscular contractions and the effect of the α2 -antagonist is seen by administering it prior to the agonist and by determining its pA2 value. Known α2 -antagonists like yohimbine and rauwolscine were used as reference substances."}, "[5]": {"molecular_target": "α1-receptors", "assay": "α1-antagonism in vitro, isolated anococcygeus muscle (rat), contraction induced by phenylephrine", "type": "biochemical", "procedure": "as §1"}, "[6]": {"conditions": "antagonist given prior to detomidine, read-out: α2-antagonism (pA2 vs detomidine) mouse vas deferens (converted)"}}, "note": "Like-named read-outs stand apart in the source and are kept apart here.", "data": [{"smiles": "c1ccc2c(c1)CC(c1cnc[nH]1)O2", "note": "(centres unmarked) [Compound II]", "values": [{"measurement": "Effect on detomidine induced potentiation of the barbiturate sleeping time (± percent of controls)", "setting": "[1]; dose 0.1 mg/kg", "value": "-5% of controls"}, {"measurement": "Effect on detomidine induced potentiation of the barbiturate sleeping time (± percent of controls)", "setting": "[1]; dose 0.3 mg/kg", "value": "-30% of controls"}, {"measurement": "Effect on detomidine induced potentiation of the barbiturate sleeping time (± percent of controls)", "setting": "[1]; dose 1 mg/kg", "value": "-60% of controls"}, {"measurement": "Effect on detomidine induced potentiation of the barbiturate sleeping time (± percent of controls)", "setting": "[1]; dose 3 mg/kg", "value": "-70% of controls"}, {"measurement": "Effect on detomidine induced potentiation of the barbiturate sleeping time (± percent of controls)", "setting": "[1]; dose 10 mg/kg", "value": "-85% of controls"}, {"measurement": "α1-agonism (pD2) rat anococcygeus", "setting": "[2]", "value": 5.5}, {"measurement": "ED50, 50 percent reversal of detomidine-induced mydriasis", "setting": "[3]; rat, in vivo", "value": 0.07, "unit": "mg/kg"}, {"measurement": "Kb", "setting": "[4]", "value": 31.6, "unit": "nM"}]}, {"smiles": "CC1c2ccccc2CC1c1cnc[nH]1", "note": "(centres unmarked) [Compound VI]", "values": [{"measurement": "α1-agonism (pD2) rat anococcygeus", "setting": "[2]", "value": 6.5}, {"measurement": "ED50, 50 percent reversal of detomidine-induced mydriasis", "setting": "[3]; rat, in vivo", "value": 0.1, "unit": "mg/kg"}, {"measurement": "Kb", "setting": "[4]", "value": 2, "unit": "nM"}]}, {"smiles": "CC1(c2cnc[nH]2)Cc2ccccc2C1", "note": "[Compound XII]", "values": [{"measurement": "α1-agonism (pD2) rat anococcygeus", "setting": "[2]", "value": 5.5}, {"measurement": "ED50, 50 percent reversal of detomidine-induced mydriasis", "setting": "[3]; rat, in vivo", "value": 0.003, "unit": "mg/kg"}, {"measurement": "Kb", "setting": "[4]; [6]", "value": 7.94, "unit": "nM"}]}, {"smiles": "COC(=O)[C@@H]1[C@H]2C[C@H]3c4[nH]c5ccccc5c4CCN3C[C@@H]2CC[C@@H]1O", "note": "[Yohimbine]", "values": [{"measurement": "Effect on detomidine induced potentiation of the barbiturate sleeping time (± percent of controls)", "setting": "[1]; dose 0.1 mg/kg", "value": "0% of controls"}, {"measurement": "Effect on detomidine induced potentiation of the barbiturate sleeping time (± percent of controls)", "setting": "[1]; dose 0.3 mg/kg", "value": "-18% of controls"}, {"measurement": "Effect on detomidine induced potentiation of the barbiturate sleeping time (± percent of controls)", "setting": "[1]; dose 1 mg/kg", "value": "-64% of controls"}, {"measurement": "Effect on detomidine induced potentiation of the barbiturate sleeping time (± percent of controls)", "setting": "[1]; dose 3 mg/kg", "value": "-70% of controls"}, {"measurement": "Effect on detomidine induced potentiation of the barbiturate sleeping time (± percent of controls)", "setting": "[1]; dose 10 mg/kg", "value": "-100% of controls"}, {"measurement": "ED50, 50 percent reversal of detomidine-induced mydriasis", "setting": "[3]; rat, in vivo", "value": 0.2, "unit": "mg/kg"}, {"measurement": "α1-antagonism (pA2 vs phenylephrine) rat anococcygeus", "setting": "[5]", "value": 6.6}, {"measurement": "Kb", "setting": "[4]", "value": 7.94, "unit": "nM"}]}, {"smiles": "Cc1ccc2c(c1)CC(c1cnc[nH]1)C2", "note": "(centres unmarked) [Compound IV]", "values": [{"measurement": "α1-agonism (pD2) rat anococcygeus", "setting": "[2]", "value": 6.5}, {"measurement": "ED50, 50 percent reversal of detomidine-induced mydriasis", "setting": "[3]; rat, in vivo", "value": 0.02, "unit": "mg/kg"}, {"measurement": "Kb", "setting": "[4]", "value": 20, "unit": "nM"}]}, {"smiles": "COC(=O)[C@H]1[C@H]2C[C@H]3c4[nH]c5ccccc5c4CCN3C[C@H]2CC[C@@H]1O", "note": "[Rauwolscine, reference compound]", "values": [{"measurement": "α1-antagonism (pA2 vs phenylephrine) rat anococcygeus", "setting": "[5]", "value": 6.3}, {"measurement": "Kb", "setting": "[4]", "value": 7.94, "unit": "nM"}]}, {"smiles": "CCC1(c2cnc[nH]2)Cc2ccccc2C1", "note": "[Compound XV]", "values": [{"measurement": "Kb", "setting": "[4]", "value": 5.01, "unit": "nM"}]}, {"smiles": "Brc1ccc2c(c1)CC(c1cnc[nH]1)O2", "note": "(centres unmarked) [Compound III]", "values": [{"measurement": "α1-agonism (pD2) rat anococcygeus", "setting": "[2]", "value": 4.5}, {"measurement": "ED50, 50 percent reversal of detomidine-induced mydriasis", "setting": "[3]; rat, in vivo", "value": 0.32, "unit": "mg/kg"}, {"measurement": "Kb", "setting": "[4]; [6]", "value": 631, "unit": "nM"}]}, {"smiles": "CNC[C@H](O)c1cccc(O)c1", "note": "[Phenylephrine, reference compound]", "values": [{"measurement": "α1-agonism (pD2) rat anococcygeus", "setting": "[2]", "value": 6.5}]}, {"smiles": "Cc1ccc2c(c1)C(C)C(c1cnc[nH]1)C2", "note": "(centres unmarked) [Compound VIII]", "values": [{"measurement": "ED50, 50 percent reversal of detomidine-induced mydriasis", "setting": "[3]; rat, in vivo", "value": 0.1, "unit": "mg/kg"}, {"measurement": "α1-antagonism (pA2 vs phenylephrine) rat anococcygeus", "setting": "[5]", "value": 5.9}, {"measurement": "Kb", "setting": "[4]", "value": 25.1, "unit": "nM"}]}, {"smiles": "CCC1(c2cnc[nH]2)Cc2ccc(C)cc2C1", "note": "(centres unmarked) [Compound XVII]", "values": [{"measurement": "Kb", "setting": "[4]; [6]", "value": 251, "unit": "nM"}]}, {"smiles": "c1ccc2c(c1)CCC(c1cnc[nH]1)C2", "note": "(centres unmarked) [Compound XVIII]", "values": [{"measurement": "α1-agonism (pD2) rat anococcygeus", "setting": "[2]", "value": 6.0}, {"measurement": "Kb", "setting": "[4]", "value": 20, "unit": "nM"}]}, {"smiles": "Cc1cccc2c1CC(c1cnc[nH]1)C2C", "note": "(centres unmarked) [Compound VII]", "values": [{"measurement": "α1-agonism (pD2) rat anococcygeus", "setting": "[2]", "value": 6.0}, {"measurement": "ED50, 50 percent reversal of detomidine-induced mydriasis", "setting": "[3]; rat, in vivo", "value": 0.1, "unit": "mg/kg"}, {"measurement": "Kb", "setting": "[4]", "value": 25.1, "unit": "nM"}]}, {"smiles": "COc1cc2nc(N3CCN(C(=O)c4ccco4)CC3)nc(N)c2cc1OC", "note": "[Prazosin]", "values": [{"measurement": "Effect on detomidine induced potentiation of the barbiturate sleeping time (± percent of controls)", "setting": "[1]; dose 0.1 mg/kg", "value": "0% of controls"}, {"measurement": "Effect on detomidine induced potentiation of the barbiturate sleeping time (± percent of controls)", "setting": "[1]; dose 0.3 mg/kg", "value": "0% of controls"}, {"measurement": "Effect on detomidine induced potentiation of the barbiturate sleeping time (± percent of controls)", "setting": "[1]; dose 1 mg/kg", "value": "0% of controls"}, {"measurement": "Effect on detomidine induced potentiation of the barbiturate sleeping time (± percent of controls)", "setting": "[1]; dose 3 mg/kg", "value": "+16% of controls"}, {"measurement": "Effect on detomidine induced potentiation of the barbiturate sleeping time (± percent of controls)", "setting": "[1]; dose 10 mg/kg", "value": "+18% of controls"}]}, {"smiles": "Cc1ccc(N(CC2=NCCN2)c2cccc(O)c2)cc1", "note": "[Phentolamine, reference compound]", "values": [{"measurement": "ED50, 50 percent reversal of detomidine-induced mydriasis", "setting": "[3]; anaesthetized rat, standard iv dose of detomidine", "value": 1, "unit": "mg/kg"}]}, {"smiles": "c1ccc2c(c1)CC(c1cnc[nH]1)C2", "note": "[Compound I]", "values": [{"measurement": "Effect on detomidine induced potentiation of the barbiturate sleeping time (± percent of controls)", "setting": "[1]; dose 0.1 mg/kg", "value": "-20% of controls"}, {"measurement": "Effect on detomidine induced potentiation of the barbiturate sleeping time (± percent of controls)", "setting": "[1]; dose 0.3 mg/kg", "value": "-60% of controls"}, {"measurement": "Effect on detomidine induced potentiation of the barbiturate sleeping time (± percent of controls)", "setting": "[1]; dose 1 mg/kg", "value": "-100% of controls"}, {"measurement": "α1-agonism (pD2) rat anococcygeus", "setting": "[2]", "value": 6.5}, {"measurement": "ED50, 50 percent reversal of detomidine-induced mydriasis", "setting": "[3]; rat, in vivo", "value": 0.003, "unit": "mg/kg"}, {"measurement": "Kb", "setting": "[4]", "value": 1.58, "unit": "nM"}]}]}
